Calls of active or inactive are those of the source. The calls are words filed in the database; no cut-off is given here.
Key:
MDA-MB-231 [1] = experiment: Antimigratory activity against human MDA-MB-231 cells at 15 uM after 24 hrs by crystal violet staining based transwell assay relative to control; format: functional
MDA-MB-231 [2] = experiment: Cytotoxicity against human MDA-MB-231 cells after 72 hrs by MTT assay; format: functional, cell-based; settings: MDA-MB-231, 72 h
MDA-MB-231 [3] = experiment: Antimigratory activity against human MDA-MB-231 cells at 45 uM after 24 hrs by crystal violet staining based transwell assay relative to control; format: functional
MDA-MB-231 [4] = experiment: Anti-invasive activity against human MDA-MB-231 cells at 15 uM after 24 hrs by crystal violet staining based matrigel coated transwell assay relative to control; format: functional
MDA-MB-231 [5] = experiment: Down regulation of MMP9 expression in human MDA-MB-231 cells after 24 hrs by Western blot analysis; format: functional, cell-based
[6] = molecular target: Matrix metalloproteinase-9 (Homo sapiens) (UniProt P14780); experiment: Inhibition of MMP9 activity in human MDA-MB-231 cells measured after 24 hrs by coomassie brilliant blue staining based gelatin zymographic method; format: cell-based
Sequence of Matrix metalloproteinase-9 (Homo sapiens) (P14780 whole entry): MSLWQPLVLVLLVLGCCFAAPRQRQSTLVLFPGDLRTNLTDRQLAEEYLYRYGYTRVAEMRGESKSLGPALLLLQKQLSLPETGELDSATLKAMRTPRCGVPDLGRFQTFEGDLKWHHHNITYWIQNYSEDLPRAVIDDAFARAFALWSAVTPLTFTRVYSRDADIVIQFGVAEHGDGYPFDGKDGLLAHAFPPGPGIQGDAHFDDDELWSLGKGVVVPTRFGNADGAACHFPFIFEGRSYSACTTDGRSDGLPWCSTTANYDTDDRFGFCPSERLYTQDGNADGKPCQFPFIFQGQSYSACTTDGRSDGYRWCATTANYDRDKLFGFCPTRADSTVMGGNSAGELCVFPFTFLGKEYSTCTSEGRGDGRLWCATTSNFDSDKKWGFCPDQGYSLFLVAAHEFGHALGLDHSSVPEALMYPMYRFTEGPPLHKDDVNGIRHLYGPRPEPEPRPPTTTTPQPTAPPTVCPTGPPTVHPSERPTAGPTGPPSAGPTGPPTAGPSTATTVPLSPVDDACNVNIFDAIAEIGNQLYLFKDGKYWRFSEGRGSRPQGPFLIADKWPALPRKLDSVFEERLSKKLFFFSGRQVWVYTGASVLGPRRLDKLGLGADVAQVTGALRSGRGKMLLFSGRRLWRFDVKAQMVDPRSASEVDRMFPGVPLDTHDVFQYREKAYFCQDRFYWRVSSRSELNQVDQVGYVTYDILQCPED

MDA-MB-231 [7] = experiment: Anti-invasive activity against human MDA-MB-231 cells at 45 uM after 24 hrs by crystal violet staining based matrigel coated transwell assay relative to control; format: functional
[8] = molecular target: Matrix metalloproteinase-9 (Homo sapiens) (UniProt P14780); experiment: Inhibition of MMP9 activity in human MDA-MB-231 cells at 45 uM measured after 24 hrs by coomassie brilliant blue staining based gelatin zymographic method; format: cell-based
[9] = molecular target: 72 kDa type IV collagenase (Homo sapiens) (UniProt P08253); experiment: Inhibition of MMP2 activity in human MDA-MB-231 cells at 45 uM measured after 24 hrs by coomassie brilliant blue staining based gelatin zymographic method; format: cell-based
Sequence of 72 kDa type IV collagenase (Homo sapiens) (P08253 110-660 limits assumed): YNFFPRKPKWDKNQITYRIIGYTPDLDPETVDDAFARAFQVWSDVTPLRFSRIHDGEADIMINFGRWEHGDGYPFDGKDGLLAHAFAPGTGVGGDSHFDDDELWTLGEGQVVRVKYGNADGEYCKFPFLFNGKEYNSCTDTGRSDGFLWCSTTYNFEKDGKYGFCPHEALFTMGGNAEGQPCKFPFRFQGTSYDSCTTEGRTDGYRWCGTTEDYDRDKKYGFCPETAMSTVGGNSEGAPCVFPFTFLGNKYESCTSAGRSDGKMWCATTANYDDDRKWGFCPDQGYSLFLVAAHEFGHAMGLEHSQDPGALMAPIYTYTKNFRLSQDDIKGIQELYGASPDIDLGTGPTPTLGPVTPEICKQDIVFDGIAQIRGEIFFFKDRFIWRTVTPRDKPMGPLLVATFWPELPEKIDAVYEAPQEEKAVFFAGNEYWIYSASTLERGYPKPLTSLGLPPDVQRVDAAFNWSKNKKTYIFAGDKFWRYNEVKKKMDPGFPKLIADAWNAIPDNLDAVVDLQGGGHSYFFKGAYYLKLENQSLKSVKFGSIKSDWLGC

MDA-MB-231 [10] = experiment: Down regulation of MMP2 expression in human MDA-MB-231 cells after 24 hrs by Western blot analysis; format: functional, cell-based
MDA-MB-231 [11] = experiment: Antimigratory activity against human MDA-MB-231 cells assessed as reduction in cell migration towards wound area at 5 to 45 uM measured up to 24 hrs by inverted microscopic analysis; format: functional, cell-based
[12] = molecular target: 72 kDa type IV collagenase (Homo sapiens) (UniProt P08253); experiment: Inhibition of MMP2 activity in human MDA-MB-231 cells measured after 24 hrs by coomassie brilliant blue staining based gelatin zymographic method; format: cell-based
MDA-MB-231 [13] = experiment: Antimigratory activity against human MDA-MB-231 cells assessed as reduction in cell migration towards wound area at 45 uM measured up to 24 hrs by inverted microscopic analysis; format: functional, cell-based

SMILES | Activity (MDA-MB-231 [1]) [%] | IC50 (MDA-MB-231 [2]) [µM] | Activity (MDA-MB-231 [3]) [%] | Activity (MDA-MB-231 [4]) | Activity (MDA-MB-231 [5]) | inhibition [6] | Activity (MDA-MB-231 [7]) [%] | inhibition [8] [%] | inhibition [9] [%] | Activity (MDA-MB-231 [10]) | Activity (MDA-MB-231 [11]) | inhibition [12] | Activity (MDA-MB-231 [13])
COc1cc2c(c3c1OCO3)-c1c(cc(OC)c3c1OCO3)CN(CCc1ccc3c(c1)OCO3)C2 | 32.9 | 88 | 47.5 | <=54.4% | Dose-dependent effect | Dose-dependent effect | 71.2 | 30.8 | 56.9 | Dose-dependent effect | Active | Dose-dependent effect | –
COC(=O)c1cc(OC)c2c(c1-c1c(C(=O)OC)cc(OC)c3c1OCO3)OCO2 | – | – | – | – | – | – | – | – | – | – | – | – | Active
